The values below are quoted from earlier work in patent US7772273B2 (LifeCycle Pharma A/S, priority 2006, dated 2010).

The conditions of data set [1]: at 25° C.
For data set [2] the following is noted: oral.

Read-outs that look alike come from different tables or passages of the source.

For `NC(CO)(CO)CO` [Trometamol, 2-amino-2-(hydroxymethyl)-1,3-propanediol], in data set [1], the Water solubility entry was “about 550 mg/mL”.
As for `CC(C)c1c(C(=O)Nc2ccccc2)c(-c2ccccc2)c(-c2ccc(F)cc2)n1CCC(O)CC(O)CC(=O)O` (stereo not drawn) [atorvastatin, 2-(4-fluorophenyl)-β,δ-dihydroxy-5-(1-methylethyl)-3-phenyl-4-[(phenylamino)carbonyl]-1H-pyrrole-1-heptanoic acid], the values for the LDL-C reduction entry in the data set with LDL-C (given with or without food) and in the data set on LDL-C (regardless of the time of day of drug administration) were “similar” and “the same”, respectively. In data set [2], the “Systemic availability of HMG-CoA reductase inhibitory activity” value is “approximately 30%”.
